Measurements: patent US20260240962A1, “PHARMACEUTICAL COMPOSITION FOR TREATING AND/OR PREVENTING CANCER” (TORAY INDUSTRIES, INC., priority 2023, published 2026)

Columns and labels:
[1] = tested on: CAPRIN-1 protein on the membrane surface of the cancer cells; assay: Flow cytometry of CAPRIN-1 protein on the membrane surface of HCT-116 treated with low molecular weight compounds; assay type: cell-based, human; conditions: 1 to 3 days, vs DMSO negative control
Procedure: 2×10^5 cancer cells suspended in Dulbecco's PBS(−) containing 1% fetal bovine serum (hereinafter, 1% FCS-PBS(−)) were reacted with an antibody against CAPRIN-1 at a concentration of 1 to 10 μg/mL, and then allowed to react on ice (or at 4° C.) for 1 hour.
After the antibody reaction, cells were washed with 1% FCS-PBS (−) and then reacted with a fluorescently labeled anti-IgG secondary antibodies (FITC Goat anti-rabbit IgG (BD Biosciences, 554020), Alexa Fluor 488 anti-rabbit IgG (H+L) (Invitrogen, A21206), Alexa Fluor 647 anti-rabbit IgG (BioLegend, 406414). Alexa Fluor 488 F(ab′)2 anti-mouse IgG (H+L) (Invitrogen, A11017) or Alexa Fluor 488 anti-human IgG (H+L) (Invitrogen, A11013) at a concentration of 1 to 10 μg/mL for reaction with an antibody against CAPRIN-1, followed by 1 hour of reaction on ice (or at 4° C.). After reaction with the fluorescently labeled secondar antibodies, cells were washed with 1% FCS-PBS(−) and then reacted with a PI (propidium iodide) solution (DOJINDO, 341-07881) or Fixable Viability Stain 450 (BD Horizon) prepared at a concentration of 0.1 μg/mL for 15 minutes. Cells were then washed with 1% FCS-PBS(−) and then the scattered light intensity and fluorescence intensity were measured using a flow cytometer according to a standard method.

HCT-116 = assay: Antitumor effect in HCT-116 cancer-bearing nude mice; assay type: in vivo; conditions: HCT-116 subcutaneous in nude mice; 10 mg/kg twice a week into the tail vein
Procedure: The antitumor effect of Dorsomorphin, which was an AMPK inhibitor, confirmed in Example 9 to have the effect of reducing the expression of the CAPRIN-1 protein on the membrane surface of the cancer cells, was confirmed. HCT-116, which were the cancer cells confirmed to express the CAPRIN-1 protein on the cell membrane surface were cultured in a normal culture flask using a complete medium containing 10% fetal bovine serum according to a standard method, and then mixed with RPMI-1640 medium containing 20% Matrigel Basement Membrane Matrix (Corning, 354234), and 1 to 2×10^7 cancer cells per mouse were subcutaneously inoculated into nude mice under anesthesia. After the cancer cells were inoculated, the size of the cancer in each cancer-bearing mouse was measured over time using a vernier caliper, and the tumor volume was calculated for each individual mouse using the formula: (length of the long axis of the cancer)×(length of the short axis of the cancer) 2×0.5 according to a standard method, and the average value of the administration group was calculated. After the cancer cells were inoculated, Dorsomorphin was administered at 10 mg/kg twice a week into the tail vein of each cancer-bearing mouse whose tumor size reached 100 to 200 mm^3 or more. […]

SK-MEL-5 = assay: Soft agar colony formation assay (anchorage-independent colony-forming ability), SK-MEL-5; assay type: cell-based, human; conditions: SK-MEL-5 treated with trypsin vs not treated, 2 to 4 weeks
Procedure: (§1) 10^4 cells of each of the above cells were suspended in DMEM medium gel containing 10% fetal bovine serum containing 0.4% soft agar (Difco, 214220), added to a Petri dish with a diameter of 35 mm, and then incubated under an environment of 37° C. and 5% CO2 for 2 to 4 weeks. After incubation, the number of colonies formed in the gel was counted.
SK-MEL-5, winch were the cancer cells confirmed to express the CAPRIN-1 protein on the cell membrane surface in Example 3, was cultured in a normal culture flask using a complete medium containing 10% fetal bovine serum under an environment of 37° C. and 5% CO2. The cultured SK-MEL-5 was collected from the flask using a cell scraper. […] On the other hand, […], SK-MEL-5, […], was used to evaluate the anchorage-independent colony-forming ability by soft agar colony formation assay. 10^4 cells of each of the above cells were suspended in a DMEM medium gel containing 10% fetal bovine serum containing 0.4% soft agar (Difco, 214220), added to a Petri dish with a diameter of 35 mm, and then incubated under an environment of 37° C. and 5% CO2 for 2 to 4 weeks.

OVCAR3 = assay: Soft agar colony formation assay (anchorage-independent colony-forming ability), OVCAR3; assay type: cell-based, human; conditions: OVCAR3 treated with trypsin vs not treated, 2 to 4 weeks
Procedure: as §1

[2] = tested on: CAPRIN-1 protein on the cell membrane surface; assay: Flow cytometry of CAPRIN-1 protein on the cell membrane surface after trypsin treatment; assay type: cell-based, human; conditions: Trypsin/EDTA (0.05%) for 5 minutes, vs cells not treated
Procedure: The expression of the CAPRIN-1 protein on the cell membrane surface of the cancer cells for which the expression of the CAPRIN-1 gene was confirmed in Example 1 was confirmed by flow cytometry. 2×10^5 cancer cells suspended in Dulbecco's PBS(−) containing 1% fetal bovine serum (hereinafter, 1% FCS-PBS(−)) were reacted with an antibody against CAPRIN-1 at a concentration of 1 to 10 μg/mL, and then allowed to react on ice (or at 4° C.) for 1 hour. […]
SK-MEL-5 and OVCAR3, which were the cancer cells confirmed to express the CAPRIN-1 protein on the cell membrane surface in Example 3, were cultured in a normal culture flask using a complete medium containing 10% fetal bovine serum under an environment of 37° C. and 5% CO2. […] Portions of the collected cells were treated with a solution containing trypsin, which was a digestive enzyme, (Thermo, Trypsin/EDTA (0.05%)) for 5 minutes, and then the proportions of live cells and dead cells stained with trypan blue were measured and calculated using the trypan blue exclusion method according to a standard method, and then the cell density of live cells was calculated. […]

Q: How did the “expression of the CAPRIN-1 protein on the membrane surface of the cancer cells” value (from here on “expression … of the cancer cells”) ([1]; final concentration 250 nM) turn out when `CCN(CC)CCCC(C)Nc1nc(C)cc(Nc2ccc3nc(C)cc(N)c3c2)n1.Cl.Cl.Cl` (racemic) [Rac1 inhibitor (CAS #1177865-17-6)] was run?
A: The value was “clearly reduced”.

Q: With `COc1ccc(CNC(=O)Nc2ncc([N+](=O)[O-])s2)cc1` [GSK-3D inhibitor VIII] as the molecule, how does the “expression … of the cancer cells” value ([1]; final concentration 10 μM) read?
A: The value was “clearly reduced”.

Q: How did the “expression … of the cancer cells” value ([1]; final concentration 20 μM) turn out when `COc1cccc(-c2cc(NCc3ccc4c(c3)OCO4)nc(N)n2)c1` [Wnt agonist 1] was run?
A: The value was “clearly reduced”.

Q: Which “expression … of the cancer cells” value ([1]; final concentration 5 μM) does the source give for `Cc1cc(-c2ccc(CC(=O)Nc3ccc(-c4cccnc4)cc3)cc2)ccn1` [Wnt-C59] here?
A: Its value is “clearly reduced”.

Q: Which “expression … of the cancer cells” value ([1]; final concentration 30 μM) does the source give for `Cc1ccc(C(=O)Cn2c3c(sc2=N)CCCC3)cc1` [Pifithrin-α] here?
A: The value was “clearly reduced”.

Q: Which “tumor size, when the tumor size of the untreated cancer-bearing mice was taken as 100%” value (HCT-116) does the source give for `c1cc(-c2cnn3cc(-c4ccc(OCCN5CCCCC5)cc4)cnc23)ccn1` [Dorsomorphin] here?
A: The value was ≤ 70%.

Q: `FC(F)(F)c1ccc(/C=C/c2nc(COc3ccc(CCCCn4ccnn4)cc3)co2)cc1` [Mubritinib] was tested. Which “expression … of the cancer cells” value ([1]; final concentration 1 μM) did it give?
A: Its value is “clearly reduced”.

Q: With `Cn1c2cccc(=O)c-2nc2ccccc21` [Pyocyanin] as the molecule, how does the “expression … of the cancer cells” value ([1]; final concentration 20 μM) read?
A: Its value is “clearly reduced”.

Q: With `O=C(N/N=C/c1ccc(O)c(O)c1)c1cc2ccccc2cc1O` [Dynasore] as the molecule, how does the “expression … of the cancer cells” value ([1]; final concentration 100 μM) read?
A: Its value is “clearly reduced”.

B1: trypsin (protein, UniProt P00761 9-231, looked up)
Trypsin: IVGGYTCAANSIPYQVSLNSGSHFCGGSLINSQWVVSAAHCYKSRIQVRLGEHNIDVLEGNEQFINAAKIITHPNFNGNTLDNDIMLIKLSSPATLNSRVATVSLPRSCAAAGTECLISGWGNTKSSGSSYPSLLQCLKAPVLSDSSCKSSYPGQITGNMICVGFLEGGKDSCQGDSGGPVVCNGQLQGIVSWGYGCAQKNKPGVYTKVCNYVNWIQQTIAAN
modifications: EDTA solution
notes: hydrolytic / digestive enzyme; solution containing trypsin (Thermo, Trypsin/EDTA (0.05%))
Q: Which “number of colonies formed” value (SK-MEL-5) does the source give for B1 here?
A: The value was “significantly lower”.

Q: And the “number of colonies formed” value (OVCAR3)?
A: The value was “significantly lower”.

Q: What about the “expression of the CAPRIN-1 protein on the cell membrane surface” value ([2]; OVCAR3) of the same molecule?
A: Its value is “reduced”.

Q: And the “expression of the CAPRIN-1 protein on the cell membrane surface” value ([2]; SK-MEL-5)?
A: Its value is “reduced”.
